# In article PMC4416922, “Measurement of Inositol 1,4,5-Trisphosphate in Living Cells Using an Improved Set of Resonance Energy Transfer-Based Biosensors” (PLoS ONE, 2015):
# How the values were obtained:
# Assay in all cases: [3H]InsP3 radioligand displacement on purified recombinant protein, Scatchard analysis
# [1] = target: T1, human type-I InsP 3 receptor ligand binding domain (InsP3R-LBD) (Homo sapiens, UniProt Q14643, R568K)
# T1 construct: gene ITPR1; residues 224-605, mRFP- and 6xHis-tagged
# T1 sequence (Q14643 224-605 R568K): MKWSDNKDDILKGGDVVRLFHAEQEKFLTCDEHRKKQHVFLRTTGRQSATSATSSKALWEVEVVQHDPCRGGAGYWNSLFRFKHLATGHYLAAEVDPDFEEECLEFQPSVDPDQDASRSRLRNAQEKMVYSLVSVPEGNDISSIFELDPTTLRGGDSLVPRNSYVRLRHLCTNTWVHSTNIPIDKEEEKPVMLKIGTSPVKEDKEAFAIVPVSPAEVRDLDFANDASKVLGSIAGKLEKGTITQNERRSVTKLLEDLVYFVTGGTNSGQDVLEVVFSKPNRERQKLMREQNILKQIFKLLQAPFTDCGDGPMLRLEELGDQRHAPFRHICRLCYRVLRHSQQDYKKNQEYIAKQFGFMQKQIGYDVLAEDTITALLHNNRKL
# [2] = target: T2, human type-I InsP 3 receptor ligand binding domain (InsP3R-LBD) (Homo sapiens, UniProt Q14643, R265K)
# T2 construct: gene ITPR1; residues 224-605, mRFP- and 6xHis-tagged
# T2 sequence (Q14643 224-605 R265K): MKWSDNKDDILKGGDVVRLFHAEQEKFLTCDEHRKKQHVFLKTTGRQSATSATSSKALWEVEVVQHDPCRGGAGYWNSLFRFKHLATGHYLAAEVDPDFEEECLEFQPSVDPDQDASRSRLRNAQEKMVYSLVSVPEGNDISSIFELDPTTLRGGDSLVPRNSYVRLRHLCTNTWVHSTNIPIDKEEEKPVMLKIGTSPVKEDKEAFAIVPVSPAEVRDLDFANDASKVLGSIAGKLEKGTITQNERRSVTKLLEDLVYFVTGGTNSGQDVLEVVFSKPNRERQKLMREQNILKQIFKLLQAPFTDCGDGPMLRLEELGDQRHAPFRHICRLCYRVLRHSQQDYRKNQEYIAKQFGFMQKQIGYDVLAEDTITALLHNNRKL
# [3] = target: T3, human type-I InsP 3 receptor ligand binding domain (InsP3R-LBD) (Homo sapiens, UniProt Q14643, R269K)
# T3 construct: gene ITPR1; residues 224-605, mRFP- and 6xHis-tagged
# T3 sequence (Q14643 224-605 R269K): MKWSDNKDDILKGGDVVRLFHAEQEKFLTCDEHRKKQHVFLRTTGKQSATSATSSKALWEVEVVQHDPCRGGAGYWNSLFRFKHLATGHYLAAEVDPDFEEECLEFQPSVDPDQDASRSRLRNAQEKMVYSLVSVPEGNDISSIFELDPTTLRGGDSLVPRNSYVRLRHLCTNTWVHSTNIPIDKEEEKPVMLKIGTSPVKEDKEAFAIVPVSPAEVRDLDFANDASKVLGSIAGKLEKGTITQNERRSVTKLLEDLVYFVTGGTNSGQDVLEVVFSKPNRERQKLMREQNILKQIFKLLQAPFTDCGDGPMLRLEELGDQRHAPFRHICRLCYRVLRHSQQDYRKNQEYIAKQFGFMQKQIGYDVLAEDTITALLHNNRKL
# [4] = target: T4, human type-I InsP 3 receptor ligand binding domain (InsP3R-LBD) (Homo sapiens, UniProt Q14643)
# T4 construct: gene ITPR1; residues 224-605, mRFP- and 6xHis-tagged
# T4 sequence (Q14643 224-605): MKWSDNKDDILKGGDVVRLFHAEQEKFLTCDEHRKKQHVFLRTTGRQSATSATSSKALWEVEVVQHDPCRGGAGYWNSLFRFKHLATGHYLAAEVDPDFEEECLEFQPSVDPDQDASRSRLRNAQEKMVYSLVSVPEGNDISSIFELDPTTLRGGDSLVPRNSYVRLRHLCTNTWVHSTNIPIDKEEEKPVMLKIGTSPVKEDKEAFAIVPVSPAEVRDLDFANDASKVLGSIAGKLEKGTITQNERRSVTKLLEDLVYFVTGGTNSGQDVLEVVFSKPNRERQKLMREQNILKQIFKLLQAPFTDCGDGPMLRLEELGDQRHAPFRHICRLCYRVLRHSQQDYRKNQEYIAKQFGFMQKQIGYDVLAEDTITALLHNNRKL
smiles,measurement,setting,value
O=P(O)(O)O[C@@H]1[C@H](O)[C@H](O)[C@@H](OP(=O)(O)O)[C@H](OP(=O)(O)O)[C@H]1O [InsP 3],Kd,[1],5.3 nM
same,Kd,[2],6.06 nM
same,Kd,[3],10.1 nM
same,Kd,[4],3.04 nM
